# Test results published in PMC12374583, “Targeting complement C3 with Tanshinone I decreases microglia-mediated synaptic engulfment to exert antidepressant effects” (Theranostics, 2025).
# Tests used:
# [1] = target: T1, C3 (complement C3), RED-NHS labelled; assay: microscale thermophoresis (Monolith NT.[…]); assay type: binding; details: 25 °C, PBS with 5% DMSO compound stocks, Tan I up to 25 µM
# T1 construct: human purified C3 equally possible
# C3 (BV2 cell proteins) [2] = target: T2, C3 (BV2 cell proteins) (Mus musculus, UniProt P01027); assay: DARTS (Pronase), MS and Western blot; assay type: biochemical; details: 200 µM Tan I, 1 h; Pronase 30 min
# T2 construct: endogenous C3 in BV2 (mouse microglial line) protein extract; detected by Western blot, 130-250 kDa band identified by MS
# T2 sequence (P01027 25-666): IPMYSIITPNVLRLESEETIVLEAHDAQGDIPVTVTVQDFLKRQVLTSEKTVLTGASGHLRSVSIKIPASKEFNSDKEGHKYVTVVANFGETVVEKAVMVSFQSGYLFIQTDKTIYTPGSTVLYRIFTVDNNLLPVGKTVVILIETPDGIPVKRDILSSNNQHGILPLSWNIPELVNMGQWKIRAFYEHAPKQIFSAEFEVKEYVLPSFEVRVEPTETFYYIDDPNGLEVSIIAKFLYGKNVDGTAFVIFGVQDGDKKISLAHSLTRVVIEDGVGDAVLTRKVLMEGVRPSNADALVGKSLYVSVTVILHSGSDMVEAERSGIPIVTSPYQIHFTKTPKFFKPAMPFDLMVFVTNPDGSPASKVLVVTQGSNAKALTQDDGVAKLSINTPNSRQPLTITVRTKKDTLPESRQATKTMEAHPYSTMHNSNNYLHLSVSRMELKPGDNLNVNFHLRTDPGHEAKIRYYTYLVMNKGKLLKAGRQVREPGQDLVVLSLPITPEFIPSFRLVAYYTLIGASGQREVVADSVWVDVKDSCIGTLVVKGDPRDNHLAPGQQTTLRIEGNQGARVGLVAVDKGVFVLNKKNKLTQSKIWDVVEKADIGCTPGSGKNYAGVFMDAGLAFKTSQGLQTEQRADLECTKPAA
# T2 sequence (P01027 671-1663): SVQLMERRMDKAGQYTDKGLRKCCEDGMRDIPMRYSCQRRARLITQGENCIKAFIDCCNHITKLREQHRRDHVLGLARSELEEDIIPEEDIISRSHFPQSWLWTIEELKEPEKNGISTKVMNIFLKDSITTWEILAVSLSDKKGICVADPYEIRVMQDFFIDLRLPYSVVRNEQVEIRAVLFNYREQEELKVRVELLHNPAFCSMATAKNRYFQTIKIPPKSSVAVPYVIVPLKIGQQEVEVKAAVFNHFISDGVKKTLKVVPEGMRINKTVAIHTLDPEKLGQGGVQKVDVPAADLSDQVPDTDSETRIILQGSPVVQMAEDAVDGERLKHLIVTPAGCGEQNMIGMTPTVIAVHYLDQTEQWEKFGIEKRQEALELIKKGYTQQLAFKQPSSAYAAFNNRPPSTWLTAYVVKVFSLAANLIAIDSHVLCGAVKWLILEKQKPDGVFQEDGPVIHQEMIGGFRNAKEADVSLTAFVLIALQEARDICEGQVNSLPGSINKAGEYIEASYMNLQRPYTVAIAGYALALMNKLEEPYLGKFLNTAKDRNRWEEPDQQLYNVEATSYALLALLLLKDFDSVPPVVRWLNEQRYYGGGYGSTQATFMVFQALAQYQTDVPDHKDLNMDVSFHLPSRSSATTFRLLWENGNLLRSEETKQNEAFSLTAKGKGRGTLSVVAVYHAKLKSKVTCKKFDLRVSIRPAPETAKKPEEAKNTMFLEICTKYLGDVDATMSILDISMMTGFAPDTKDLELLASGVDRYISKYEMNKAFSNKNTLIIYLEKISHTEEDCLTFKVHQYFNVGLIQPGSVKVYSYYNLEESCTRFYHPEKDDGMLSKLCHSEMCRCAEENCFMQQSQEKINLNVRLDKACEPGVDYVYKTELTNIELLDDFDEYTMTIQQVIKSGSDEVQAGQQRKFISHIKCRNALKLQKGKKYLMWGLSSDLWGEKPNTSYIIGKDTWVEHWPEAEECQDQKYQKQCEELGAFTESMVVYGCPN
# C3 (BV2 cell proteins) [3] = target: T2, C3 (BV2 cell proteins); assay: CETSA in BV2 protein extract, Western blot; assay type: biochemical; details: Tan I 1 h; 40-65 °C, 3 min
compound,measurement,setting,value
Cc1coc2c1C(=O)C(=O)c1c-2ccc2c(C)cccc12 [Tan I],Kd,[1],3.75 ± 3.31 µM
same,protection from proteolysis (DARTS),C3 (BV2 cell proteins) [2],Tan I protected C3 from proteolytic degradation
same,thermal stabilisation (CETSA),C3 (BV2 cell proteins) [3],Tan I significantly enhances the thermal stability of C3 in a certain temperature range
